Experiments:
human VEGF165 = target: T1, human VEGF165 (Homo sapiens, UniProt P15692); assay: Direct binding ELISA to human VEGF165; conditions: coated VEGF165 1 μg/mL, read-out: EC50 (nM), binding affinity to VEGF165
T1 sequence (P15692 27-191 isoform P15692-4): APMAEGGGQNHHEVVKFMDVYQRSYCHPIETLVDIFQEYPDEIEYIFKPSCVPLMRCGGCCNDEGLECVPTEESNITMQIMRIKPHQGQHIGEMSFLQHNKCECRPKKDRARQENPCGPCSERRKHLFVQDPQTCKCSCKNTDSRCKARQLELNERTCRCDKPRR
Procedure: A direct binding enzyme-linked immunosorbent assay (ELISA) was used to measure the binding affinity of fusion proteins of the invention to human VEGF165, a splice variant of VEGF-A.
100 μL of a coating solution (1 μg/mL VEGF165 in 1× phosphate buffered saline (PBS), pH 7.2) were added to each well of a 96-well ELISA plate, and the plate was incubated overnight at 4° C. The wells were washed twice with 400 μL of 1×PBS buffer, and excess liquid was carefully removed with a paper towel.
400 μL of a blocking solution (5 g non-fat skim milk in 100 mL 1×PBS) were added to each well, and the plate was incubated at room temperature for 1 hour. The wells were washed twice with 1×PBS buffer.
Fusion protein and control samples were serially diluted three-fold in blocking solution, with a highest protein concentration of 10 nM. 100 μL of the serially diluted samples were added to each well. The plate was covered and incubated on a plate shaker (˜100 rpm) for 1 hour at room temperature. The wells were washed three times with wash buffer (1×PBS, 0.05% Tween-20). […]
(§1) The optical density (OD) of each well was determined using an ELISA plate reader at an absorbance wavelength of 450 nm. The absorbance was plotted against the protein concentration of the fusion protein or the control, and the concentration at which the signal was half the maximal effective concentration (EC50) was determined.

[1] = test system: human umbilical vein endothelial cell (HUVEC); assay: VEGF165-induced HUVEC proliferation assay (MTS); format: cell-based; conditions: VEGF165 8 ng/mL, 72 hours, read-out: IC50 (nM), inhibition of cell proliferation
Procedure: A human umbilical vein endothelial cell (HUVEC) proliferation assay was carried out to test the functionality of the fusion proteins of the invention. A commercially available VEGF Trap, aflibercept (Eylea®, Regeneron), was included as Positive Control 2.
100 μL of a coating solution (1% gelatin in double distilled water) were added to each well of a 96-well ELISA plate, and the plate was incubated for 2 hours or overnight at 37° C. The wells were washed twice with 1×PBS buffer.
3500 counts of human umbilical vein endothelial cells in endothelial cell growth medium were added to each well, and the plate was incubated overnight at 37° C.
Fusion protein samples were diluted in assay buffer (Medium-199 1× Earle's Salts, 10% fetal bovine serum, 10 mM HEPES, lx antibiotic/antimycotic), with a highest protein concentration of 300 nM. The fusion protein samples were mixed with VEGF165 (8 ng/mL), and the mixtures were incubated overnight at room temperature. The wells were then washed with 200 μL of 1×PBS.
100 μL of the VEGF165/sample mixture were added to each well, and the plates were incubated for 72 hours at 37° C. with 5% CO2. […]
The OD of each well was determined using an ELISA plate reader at an absorbance wavelength of 490 nm. […]

[2] = test system: VEGF-induced leakage in Dutch Belted Rabbits; assay: VEGF-induced retinal leakage in Dutch Belted rabbits (Example 8); format: in vivo; conditions: FA scale 0 (normal) to 4 (severe)
Procedure: Fusion proteins of the invention were tested in an in vivo model of vascular permeability to determine their efficacy in preventing vascular leakage. In this model, VEGF was intravitreally injected to the vitreous of rabbit eyes to induce uncontrolled retinal leakage. Aflibercept (Eylea®, Regeneron), a recombinant fusion protein consisting of portions of human VEGFR1 and VEGFR2 fused to the Fc portion of human IgG1, and bevacizumab (Avastin®, Roche), a recombinant humanized monoclonal antibody that blocks angiogenesis by inhibiting VEGF-A were included as Positive Controls 2 and 6, respectively.
Dutch Belted rabbits were anesthetized using isoflurane (3-5%), and their eyes were treated with ophthalmic Betadine solution. The rabbits' eyes were then washed with sterile saline, and lidocaine hydrochloride (2% injectable) or proparacaine (0.5%) was applied to the ocular surface.
On Day 1, Dutch Belted rabbits were intravitreally injected with fusion proteins of the invention, vehicle (negative) control, or reference (positive) controls at predetermined doses using a BD 300 μL insulin syringe (31 ga× 5/16 inch). […]
Signs of ocular irritation were scored using the Draize scoring system prior to fusion protein dosing, VEGF induction, and assessments. […]

[3] = test system: VEGF-induced leakage in Dutch Belted Rabbits; assay: Dose-response VEGF-induced retinal leakage in Dutch Belted rabbits (Example 9); format: in vivo; conditions: FA scale 0 (normal) to 4 (severe)
Procedure: Fusion proteins of the invention were tested in an in vivo model of retinal vascular permeability at varying doses to determine their dose-response effectiveness in preventing vascular leakage. In this model, human VEGF165 was intravitreally injected to the vitreous of rabbit eyes to induce retinal leakage.
On Day 1, Dutch Belted rabbits were intravitreally injected with Fusion Protein 1 according to an embodiment of the invention at various doses, vehicle (negative) control, or reference (positive) controls. Vascular leakage was induced by injecting exogenous VEGF165 into the same eyes on Day 3.
FAs were conducted on all dosage groups 3 days after the VEGF-induction (Day 6) to assess leakiness and tortuosity using a scale from 0 (normal) to 4 (severe).
Signs of ocular irritation were scored using the Draize scoring system prior to fusion protein dosing, VEGF induction, and assessments. According to the Draize analysis, all of the rabbit eyes were normal prior to the initiation of dosing. […] There were no drug-related findings evident during the course of the study.

HUVECs = assay: HUVEC tube formation on matrigel; format: cell-based; conditions: Homo sapiens, 18-hour incubation, read-out: IC50 (μM), inhibition of tube formation
Procedure: HUVECs (1.5×10^4 cells/well) were placed in a 96-well matrigel-coated plate. Six doses of Fusion Protein 1 (0.1 μM, 0.3 μM, 1 μM, 3 μM, 10 μM, and 30 μM) and vehicle were added to each well in growth media under an atmosphere of 5% CO2 at 37° C. After an 18-hour incubation period, morphology of the endothelial cell tubes, which resemble a capillary-like network, were evaluated by photomicroscopy. Disruption (anti-angiogenesis) of total tube length was measured from each photograph and determined relative to the vehicle control group. […] Suramin was used as an anti-angiogenic positive control (Positive Control 5) for all studies.

integrin αvβ3 = integrin αvβ3 (Homo sapiens, UniProt P05106+P06756); assay: Competitive binding ELISA of soluble integrin αvβ3 to vitronectin; conditions: vitronectin-coated plate
Procedure: The competitive binding was used to measure the binding affinity of Fusion Protein 1 of the invention to integrin αvβ3.
1 μg/mL victronectin dissolved in coating solution were added to each well of a 96-well ELISA plate, and the plate was incubated overnight at 4° C. The wells were washed twice with PBS buffer, and excess liquid was carefully removed with a paper towel.
Blocking solution (5 g non-fat skim milk in 100 mL 1×PBS) were added to each well, and the plate was incubated at room temperature for 1 hour. The wells were washed twice with 1×PBS buffer.
One hundred microliters […] of the serially diluted samples were added to each well. The plate was covered and incubated on a plate shaker (˜100 rpm) for 1 hour at room temperature. The wells were washed three times with wash buffer (1×PBS, 0.05% Tween-20).
Diluted primary anti-integrin αv antibody was added and incubated, then washed. Horseradish peroxidase-conjugated goat anti-human IgG Fc specific antibodies in blocking solution were added to each well. […]
as §1, with “inhibition” for “effective”, “(IC50)” for “(EC50)”

[4] = test system: integrin αvβ3 (CHO-αvβ3 cells); assay: Adhesion of αvβ3-overexpressing CHO cells to fibrinogen; format: cell-based; conditions: CHO-αvβ3 cell adhesion to fibrinogen
Procedure: (§2) The adhesion of αvβ3-overexpressing CHO cells to fibrinogen and α5β1-expressing K562 cells to fibronectin were evaluated in the presence of fusion proteins.
(§3) 96-well Immulon-2 microtiter plates (Costar, Corning, NY) were coated with 100 μL of phosphate-buffered saline (PBS: 10 mM phosphate buffer, 0.15 M NaCl, pH 7.4) containing substrates at a concentration of 50-500 nM, and incubated overnight at 4° C. The substrates and their coating concentrations were fibrinogen (Fg) at 200 μg/mL and fibronectin (Fn) at 25 μg/mL. Non-specific protein binding sites were blocked by incubating each well with 200 μL of heat-denatured 1% bovine serum albumin (BSA) (Calbiochem) at room temperature for 1.5 hours. The heat-denatured BSA was discarded and each well was washed twice with 200 μL of PBS.
(§4) CHO cells that expressed the integrin αvβ3 (CHO-αvβ3) from the same source of Patent Application No. PCT/US2015/46322 were maintained in DMEM. Human erythroleukemia K562 was maintained as written in Patent Application No. PCT/US2015/46322 from ATCC and cultured in Roswell Park Memorial Institute (RPMI)-1640 medium containing 5% FCS. […] Bound cells were quantified by crystal violet staining. […] The resulting absorbance was read at 600 nm and the readings were correlated with the number of adhering cells. […]

[5] = target: T2, integrin α5β1 (K562 cells) (Homo sapiens, UniProt P05556+P08648); assay: Adhesion of α5β1-expressing K562 cells to fibronectin; format: cell-based; conditions: K562 cell adhesion to fibronectin
T2 construct: α5β1-expressing K562 cells to fibronectin; host or cells: K562 human erythroleukemia cells
Procedure: as §2, §3, §4

T2 sequence (P08648 42-894 limits assumed): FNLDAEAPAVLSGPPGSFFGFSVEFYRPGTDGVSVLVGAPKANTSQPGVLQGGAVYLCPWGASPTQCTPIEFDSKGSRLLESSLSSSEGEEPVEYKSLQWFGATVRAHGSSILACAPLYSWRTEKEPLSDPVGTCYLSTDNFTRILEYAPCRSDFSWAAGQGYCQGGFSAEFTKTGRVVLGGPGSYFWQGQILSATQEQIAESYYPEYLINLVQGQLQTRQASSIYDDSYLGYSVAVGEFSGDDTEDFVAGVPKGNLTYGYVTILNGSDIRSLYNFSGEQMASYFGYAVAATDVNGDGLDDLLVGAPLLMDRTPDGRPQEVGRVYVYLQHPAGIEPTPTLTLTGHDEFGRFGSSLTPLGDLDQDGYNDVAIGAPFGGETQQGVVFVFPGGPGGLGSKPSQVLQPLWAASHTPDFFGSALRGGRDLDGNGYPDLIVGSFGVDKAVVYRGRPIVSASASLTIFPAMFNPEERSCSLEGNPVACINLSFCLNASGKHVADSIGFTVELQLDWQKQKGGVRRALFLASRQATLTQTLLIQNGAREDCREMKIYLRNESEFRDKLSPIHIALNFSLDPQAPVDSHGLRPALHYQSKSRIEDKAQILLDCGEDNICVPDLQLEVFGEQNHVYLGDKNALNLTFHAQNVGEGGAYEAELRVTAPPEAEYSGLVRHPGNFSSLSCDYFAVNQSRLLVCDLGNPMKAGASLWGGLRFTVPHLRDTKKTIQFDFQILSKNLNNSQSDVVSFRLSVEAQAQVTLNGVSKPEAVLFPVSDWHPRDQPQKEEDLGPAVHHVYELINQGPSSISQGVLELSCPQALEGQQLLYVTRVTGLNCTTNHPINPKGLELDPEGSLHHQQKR
T2 sequence (P08648 895-1049 limits assumed): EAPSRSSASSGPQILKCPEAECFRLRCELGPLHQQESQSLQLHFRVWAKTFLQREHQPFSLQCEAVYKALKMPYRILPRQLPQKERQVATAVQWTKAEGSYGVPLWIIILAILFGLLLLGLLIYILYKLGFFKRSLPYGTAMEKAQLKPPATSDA
T2 sequence (P05556 21-798): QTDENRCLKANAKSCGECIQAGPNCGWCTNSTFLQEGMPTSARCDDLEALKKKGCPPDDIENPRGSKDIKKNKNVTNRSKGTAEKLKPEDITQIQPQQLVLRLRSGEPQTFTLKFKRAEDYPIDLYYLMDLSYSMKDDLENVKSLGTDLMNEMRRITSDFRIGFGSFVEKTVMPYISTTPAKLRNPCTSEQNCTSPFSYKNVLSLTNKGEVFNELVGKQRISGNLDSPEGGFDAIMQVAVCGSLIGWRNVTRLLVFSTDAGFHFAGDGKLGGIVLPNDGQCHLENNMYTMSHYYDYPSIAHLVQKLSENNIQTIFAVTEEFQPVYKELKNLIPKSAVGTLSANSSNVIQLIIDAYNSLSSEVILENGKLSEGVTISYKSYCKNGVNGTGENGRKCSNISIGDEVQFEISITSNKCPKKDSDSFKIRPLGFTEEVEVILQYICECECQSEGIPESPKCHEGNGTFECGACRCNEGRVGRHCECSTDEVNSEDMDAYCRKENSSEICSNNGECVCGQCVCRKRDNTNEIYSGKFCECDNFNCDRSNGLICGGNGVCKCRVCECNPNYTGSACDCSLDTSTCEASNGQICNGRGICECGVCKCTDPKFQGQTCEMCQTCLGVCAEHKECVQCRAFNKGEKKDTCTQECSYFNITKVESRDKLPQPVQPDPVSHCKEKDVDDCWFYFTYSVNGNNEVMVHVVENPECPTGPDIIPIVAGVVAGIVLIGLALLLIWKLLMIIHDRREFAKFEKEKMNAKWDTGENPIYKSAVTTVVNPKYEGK
Chain of integrin αvβ3 (P06756 31-889 limits assumed): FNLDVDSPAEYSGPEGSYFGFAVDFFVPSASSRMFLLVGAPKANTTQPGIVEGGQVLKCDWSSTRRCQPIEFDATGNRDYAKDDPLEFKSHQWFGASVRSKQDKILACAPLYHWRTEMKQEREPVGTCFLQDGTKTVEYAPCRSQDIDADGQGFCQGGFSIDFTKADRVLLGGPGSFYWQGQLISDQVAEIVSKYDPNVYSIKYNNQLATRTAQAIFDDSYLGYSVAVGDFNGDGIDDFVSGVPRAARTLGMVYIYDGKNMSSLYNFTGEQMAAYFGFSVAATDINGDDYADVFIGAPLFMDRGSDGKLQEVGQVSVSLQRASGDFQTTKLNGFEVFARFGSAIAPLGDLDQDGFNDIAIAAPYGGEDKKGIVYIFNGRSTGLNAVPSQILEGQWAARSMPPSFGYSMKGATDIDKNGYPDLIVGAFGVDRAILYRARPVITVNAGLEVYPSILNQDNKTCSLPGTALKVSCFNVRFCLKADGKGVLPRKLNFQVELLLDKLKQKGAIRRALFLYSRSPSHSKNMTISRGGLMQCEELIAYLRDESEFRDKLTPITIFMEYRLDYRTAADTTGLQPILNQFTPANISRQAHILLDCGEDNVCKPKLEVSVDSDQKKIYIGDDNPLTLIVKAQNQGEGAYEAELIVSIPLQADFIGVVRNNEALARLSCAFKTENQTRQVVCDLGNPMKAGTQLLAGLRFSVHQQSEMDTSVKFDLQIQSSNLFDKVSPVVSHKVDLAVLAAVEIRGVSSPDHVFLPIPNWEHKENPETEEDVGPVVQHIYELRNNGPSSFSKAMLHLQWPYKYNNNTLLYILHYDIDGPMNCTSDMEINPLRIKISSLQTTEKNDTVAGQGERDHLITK
Chain of integrin αvβ3 (P06756 891-992 limits assumed): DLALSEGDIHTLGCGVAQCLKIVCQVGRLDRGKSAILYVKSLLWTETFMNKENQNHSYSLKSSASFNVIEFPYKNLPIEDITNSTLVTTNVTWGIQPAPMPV
Chain of integrin αvβ3 (P05106 27-718 limits assumed): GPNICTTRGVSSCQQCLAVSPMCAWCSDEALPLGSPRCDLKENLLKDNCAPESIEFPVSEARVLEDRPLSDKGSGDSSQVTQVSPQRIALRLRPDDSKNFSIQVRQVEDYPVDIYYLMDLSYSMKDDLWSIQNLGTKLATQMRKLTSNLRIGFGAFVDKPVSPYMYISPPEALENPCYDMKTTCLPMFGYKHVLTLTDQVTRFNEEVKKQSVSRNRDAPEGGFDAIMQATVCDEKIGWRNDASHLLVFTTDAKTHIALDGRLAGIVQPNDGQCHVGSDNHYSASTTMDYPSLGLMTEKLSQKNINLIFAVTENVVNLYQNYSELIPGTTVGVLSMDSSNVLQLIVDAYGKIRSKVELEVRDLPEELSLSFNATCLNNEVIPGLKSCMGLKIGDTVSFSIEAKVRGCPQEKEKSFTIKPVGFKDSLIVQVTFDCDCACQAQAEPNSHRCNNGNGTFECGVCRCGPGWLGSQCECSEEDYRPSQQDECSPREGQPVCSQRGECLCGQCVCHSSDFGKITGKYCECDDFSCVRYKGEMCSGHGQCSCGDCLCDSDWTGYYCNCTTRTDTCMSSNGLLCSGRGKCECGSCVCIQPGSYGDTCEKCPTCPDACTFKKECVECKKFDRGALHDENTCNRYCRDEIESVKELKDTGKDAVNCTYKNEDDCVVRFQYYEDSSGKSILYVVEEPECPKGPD

aflibercept [Positive Control 2]
EC50 (human VEGF165): 0.088 to 0.195 nM | IC50 [1]: 0.026 to 0.136 nM | Day 6 Mean Leakage Score ([2]; Example 8, intravitreal dose 625 μg): 0 | Day 6 Mean Leakage Score ([3]; Example 9, intravitreal dose 625 μg): 0

Cc1ccc(C(=O)Nc2ccc(S(=O)(=O)O)c3cc(S(=O)(=O)O)cc(S(=O)(=O)O)c23)cc1NC(=O)c1cccc(NC(=O)Nc2cccc(C(=O)Nc3cc(C(=O)Nc4ccc(S(=O)(=O)O)c5cc(S(=O)(=O)O)cc(S(=O)(=O)O)c45)ccc3C)c2)c1 [Positive Control 5, Suramin]
IC50 (HUVECs): 15.8 µM

Rhodostomin [Positive Control 3]
IC50 (integrin αvβ3): 2.6 to 3.2 nM | IC50 [4]: 24.7 nM | IC50 [5]: 252 nM

bevacizumab [Positive Control 6]
Day 6 Mean Leakage Score ([2]; Example 8, intravitreal dose 1250 μg): 0.25 | Day 6 Mean Leakage Score ([3]; Example 9, intravitreal dose 1250 μg): 0.17

Reference: patent US12152057B2, “Fusion proteins for inhibiting angiogenesis” (priority 2015, dated 2024)
